{"source": "ChEMBL document CHEMBL1201862", "about": "“PubChem BioAssay data set” (2004)", "key": {"[1]": {"target": "Muscarinic acetylcholine receptor M1 (Rattus norvegicus, UniProt P08482)", "sequence (P08482 whole entry)": "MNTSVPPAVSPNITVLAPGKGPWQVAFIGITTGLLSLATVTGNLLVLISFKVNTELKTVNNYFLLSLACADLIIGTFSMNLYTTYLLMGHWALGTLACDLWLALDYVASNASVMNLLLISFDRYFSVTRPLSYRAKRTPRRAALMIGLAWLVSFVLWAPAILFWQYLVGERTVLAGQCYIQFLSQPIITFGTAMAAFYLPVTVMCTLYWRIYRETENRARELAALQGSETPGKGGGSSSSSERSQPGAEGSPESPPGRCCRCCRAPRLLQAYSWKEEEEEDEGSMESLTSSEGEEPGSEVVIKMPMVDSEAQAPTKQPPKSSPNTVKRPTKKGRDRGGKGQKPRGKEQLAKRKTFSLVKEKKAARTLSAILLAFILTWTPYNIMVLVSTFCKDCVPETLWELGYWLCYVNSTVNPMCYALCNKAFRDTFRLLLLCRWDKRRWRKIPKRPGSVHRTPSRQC", "assay": "rat M1 positive allosteric modulator potency, dose response, cell-based, calcium mobilization, CHO-K1, ACh EC20 (AID 2425)", "assay_type": "functional"}, "[2]": {"assay": "M. tuberculosis growth inhibition, HTS (AID 449762)", "assay_type": "functional"}, "[3]": {"assay": "microbe, parasite or virus in culture", "assay_type": "functional", "conditions": "Mycobacterium tuberculosis"}, "[4]": {"target": "T1, Tyrosine-protein phosphatase non-receptor type 7 (Homo sapiens, UniProt P35236)", "T1 sequence (P35236 whole entry)": "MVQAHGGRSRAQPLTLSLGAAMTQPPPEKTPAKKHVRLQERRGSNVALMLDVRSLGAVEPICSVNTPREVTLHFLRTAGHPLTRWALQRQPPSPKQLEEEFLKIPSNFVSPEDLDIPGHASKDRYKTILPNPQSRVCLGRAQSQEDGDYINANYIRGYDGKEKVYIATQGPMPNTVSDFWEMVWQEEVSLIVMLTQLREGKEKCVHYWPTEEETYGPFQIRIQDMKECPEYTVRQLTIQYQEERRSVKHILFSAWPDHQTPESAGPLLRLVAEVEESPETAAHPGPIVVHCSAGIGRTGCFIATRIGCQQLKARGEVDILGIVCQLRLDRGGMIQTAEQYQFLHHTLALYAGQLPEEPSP", "assay": "redox-dependent HePTP inhibition, mechanism study, biochemical, fluorescence (AID 2068)", "assay_type": "functional"}, "[5]": {"target": "T2, Induced myeloid leukemia cell differentiation protein Mcl-1 (Homo sapiens, UniProt Q07820)", "T2 sequence (Q07820 whole entry)": "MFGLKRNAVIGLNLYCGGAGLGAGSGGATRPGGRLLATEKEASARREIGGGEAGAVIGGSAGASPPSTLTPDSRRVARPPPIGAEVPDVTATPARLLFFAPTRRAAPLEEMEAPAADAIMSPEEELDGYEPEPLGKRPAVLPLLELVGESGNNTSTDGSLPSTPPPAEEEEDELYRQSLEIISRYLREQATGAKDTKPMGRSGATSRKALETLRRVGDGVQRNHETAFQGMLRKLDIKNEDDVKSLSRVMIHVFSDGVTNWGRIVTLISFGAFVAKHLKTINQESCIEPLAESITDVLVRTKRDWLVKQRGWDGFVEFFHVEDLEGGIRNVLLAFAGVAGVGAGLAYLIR", "assay_type": "functional"}, "Estrogen receptor beta": {"target": "Estrogen receptor beta (Homo sapiens, UniProt Q92731)", "sequence (Q92731 whole entry)": "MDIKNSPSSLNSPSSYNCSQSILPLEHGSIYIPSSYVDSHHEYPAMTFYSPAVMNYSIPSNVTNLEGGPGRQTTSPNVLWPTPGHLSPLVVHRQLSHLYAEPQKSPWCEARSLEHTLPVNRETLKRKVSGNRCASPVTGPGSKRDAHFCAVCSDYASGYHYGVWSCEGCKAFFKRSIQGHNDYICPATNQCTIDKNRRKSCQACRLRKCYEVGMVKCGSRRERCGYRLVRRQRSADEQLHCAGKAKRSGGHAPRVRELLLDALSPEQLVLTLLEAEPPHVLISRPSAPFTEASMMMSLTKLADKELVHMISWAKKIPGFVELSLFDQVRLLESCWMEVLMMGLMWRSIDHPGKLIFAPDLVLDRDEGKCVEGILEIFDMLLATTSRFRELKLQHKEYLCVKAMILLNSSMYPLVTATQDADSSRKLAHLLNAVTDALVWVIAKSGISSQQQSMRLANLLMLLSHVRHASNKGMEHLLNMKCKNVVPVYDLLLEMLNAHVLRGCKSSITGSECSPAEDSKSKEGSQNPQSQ", "assay": "ERβ–SRC-3 coactivator interaction inhibitors, confirmation, orthogonal assay, biochemical, ELISA, streptavidin-HRP readout (AID 1060)"}, "Ephrin type-A receptor 4": {"target": "Ephrin type-A receptor 4 (Mus musculus, UniProt Q03137)", "sequence (Q03137 whole entry)": "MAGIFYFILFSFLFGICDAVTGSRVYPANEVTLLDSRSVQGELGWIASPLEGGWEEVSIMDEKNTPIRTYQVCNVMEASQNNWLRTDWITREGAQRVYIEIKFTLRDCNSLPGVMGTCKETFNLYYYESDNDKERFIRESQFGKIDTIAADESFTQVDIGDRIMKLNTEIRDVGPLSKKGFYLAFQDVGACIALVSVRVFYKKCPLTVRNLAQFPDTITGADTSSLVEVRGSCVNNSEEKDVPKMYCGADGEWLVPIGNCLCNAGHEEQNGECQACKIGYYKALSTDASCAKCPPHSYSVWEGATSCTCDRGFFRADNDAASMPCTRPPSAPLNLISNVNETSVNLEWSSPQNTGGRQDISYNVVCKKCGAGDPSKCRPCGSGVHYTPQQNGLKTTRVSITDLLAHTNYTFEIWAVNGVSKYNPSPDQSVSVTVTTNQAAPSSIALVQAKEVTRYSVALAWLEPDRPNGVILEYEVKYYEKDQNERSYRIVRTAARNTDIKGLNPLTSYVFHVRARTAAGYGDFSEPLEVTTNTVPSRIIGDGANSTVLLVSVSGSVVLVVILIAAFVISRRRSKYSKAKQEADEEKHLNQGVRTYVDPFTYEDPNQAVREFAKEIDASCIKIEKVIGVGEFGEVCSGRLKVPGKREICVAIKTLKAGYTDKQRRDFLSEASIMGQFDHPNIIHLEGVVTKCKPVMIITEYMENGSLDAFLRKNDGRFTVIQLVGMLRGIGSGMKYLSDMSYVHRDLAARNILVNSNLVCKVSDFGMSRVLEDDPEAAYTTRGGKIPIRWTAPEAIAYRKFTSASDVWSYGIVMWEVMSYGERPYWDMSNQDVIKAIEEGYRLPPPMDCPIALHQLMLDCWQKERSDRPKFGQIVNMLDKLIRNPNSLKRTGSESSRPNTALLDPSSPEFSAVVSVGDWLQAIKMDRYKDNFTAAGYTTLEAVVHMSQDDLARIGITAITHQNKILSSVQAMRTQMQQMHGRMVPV", "assay": "inhibitors of EphA4 binding to KYL peptide, primary screen, biochemical, colorimetric, mouse EphA4 (AID 689)", "assay_type": "functional"}, "[6]": {"target": "E3 ubiquitin-protein ligase Mdm2 (Homo sapiens, UniProt Q00987)", "sequence (Q00987 whole entry)": "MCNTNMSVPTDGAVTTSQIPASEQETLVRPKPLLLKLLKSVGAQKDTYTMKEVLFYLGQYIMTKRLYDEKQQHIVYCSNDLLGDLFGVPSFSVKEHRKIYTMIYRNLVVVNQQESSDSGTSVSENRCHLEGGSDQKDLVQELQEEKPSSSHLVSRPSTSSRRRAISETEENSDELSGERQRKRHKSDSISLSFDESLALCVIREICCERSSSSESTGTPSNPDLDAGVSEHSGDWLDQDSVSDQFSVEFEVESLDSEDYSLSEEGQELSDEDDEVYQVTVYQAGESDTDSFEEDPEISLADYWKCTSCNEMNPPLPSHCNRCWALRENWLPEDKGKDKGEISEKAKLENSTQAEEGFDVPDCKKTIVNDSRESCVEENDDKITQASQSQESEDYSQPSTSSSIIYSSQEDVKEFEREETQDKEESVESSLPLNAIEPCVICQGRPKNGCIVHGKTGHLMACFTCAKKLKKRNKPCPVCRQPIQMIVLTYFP", "assay": "enhancers of MDM2-luciferase reporter signal, concentration-effect titration, project on inhibitors of MDM2 ubiquitin ligase, cellular assay, luminescent readout, 384-well plate format (AID 1394);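 further: MDM2 E3 inhibitors raise luminescence so EC50 is for signal enhancement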", "assay_type": "functional"}, "[7]": {"assay": "HEK293T cell cytotoxicity, dose response, cytotoxicity control for HIV Vif inhibitor project, cherry-picks (AID 652208)", "assay_type": "functional, cell-based"}, "[8]": {"assay": "Shn3 3'UTR reporter inhibitors, dose response, cell-based, Clone20 osteoblasts, firefly luciferase, cherry-picked (AID 624132)", "assay_type": "functional"}, "[9]": {"assay": "control 3'UTR Renilla luciferase suppression, dose response, counter-screen for Shn3 inhibitor project, cell-based, Clone20-Shn3RL, cherry-picked (AID 624133)", "assay_type": "functional"}, "Caspase-7": {"target": "Caspase-7 (Homo sapiens, UniProt P55210)", "sequence (P55210 24-198 limits assumed)": "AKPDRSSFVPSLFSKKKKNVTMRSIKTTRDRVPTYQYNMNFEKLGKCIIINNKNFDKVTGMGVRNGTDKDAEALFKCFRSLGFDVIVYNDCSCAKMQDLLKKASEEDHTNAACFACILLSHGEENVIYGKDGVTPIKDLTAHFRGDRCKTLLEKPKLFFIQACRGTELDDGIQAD", "sequence (P55210 207-303 limits assumed)": "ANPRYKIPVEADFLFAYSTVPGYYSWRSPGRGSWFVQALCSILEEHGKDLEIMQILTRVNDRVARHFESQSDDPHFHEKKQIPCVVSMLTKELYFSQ", "assay": "human caspase-7 inhibitors, dose response, selectivity assay for caspase-6 inhibitor project, biochemical, DEVD-R110 fluorescence, cherry-pick (AID 743295)", "assay_type": "[…]"}, "Protein Tat": {"target": "Protein Tat (Human immunodeficiency virus type 1 group M subtype B (isolate HXB2)(HIV-1), UniProt P04608)", "sequence (P04608 whole entry)": "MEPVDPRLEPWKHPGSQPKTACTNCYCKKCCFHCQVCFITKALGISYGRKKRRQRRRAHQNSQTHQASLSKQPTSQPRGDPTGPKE", "assay_type": "functional"}, "[10]": {"target": "T2, Induced myeloid leukemia cell differentiation protein Mcl-1", "assay": "MCL1-BIM BH3 interaction inhibitors, dose response, biochemical, fluorescence polarization, BIM-BH3 peptide, 1536-well (AID 2217)"}, "Bcl-2-like protein 1": {"target": "Bcl-2-like protein 1 (Homo sapiens, UniProt Q07817)", "sequence (Q07817 whole entry)": "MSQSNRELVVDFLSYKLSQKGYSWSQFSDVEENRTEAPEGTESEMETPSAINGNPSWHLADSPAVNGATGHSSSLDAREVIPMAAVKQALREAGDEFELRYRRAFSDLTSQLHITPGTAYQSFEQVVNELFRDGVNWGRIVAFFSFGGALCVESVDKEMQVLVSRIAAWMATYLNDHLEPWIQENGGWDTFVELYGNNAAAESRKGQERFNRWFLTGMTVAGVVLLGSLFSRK", "assay": "BCL-XL inhibitors, dose response, selectivity assay for MCL1 inhibitor project, biochemical, fluorescence polarization, 1536-well (AID 2218)"}, "Caspase-8": {"target": "Caspase-8 (Homo sapiens, UniProt Q14790)", "sequence (Q14790 217-374 limits assumed)": "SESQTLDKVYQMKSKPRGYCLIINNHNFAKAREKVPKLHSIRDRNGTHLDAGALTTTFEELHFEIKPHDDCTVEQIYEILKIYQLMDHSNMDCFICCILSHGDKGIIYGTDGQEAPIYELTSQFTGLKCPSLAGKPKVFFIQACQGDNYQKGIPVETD", "sequence (Q14790 385-479 limits assumed)": "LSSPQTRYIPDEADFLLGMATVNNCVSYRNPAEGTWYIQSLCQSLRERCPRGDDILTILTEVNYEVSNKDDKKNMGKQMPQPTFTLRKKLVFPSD", "assay": "caspase-8 inhibition counter-screen, dose response, selectivity assay for caspase-6 inhibitor project, biochemical, Z-IETD-R110 fluorescence, cherry-picked samples (AID 743294)"}, "Caspase-6": {"target": "T3, Caspase-6 (Homo sapiens, UniProt P55212)", "T3 sequence (P55212 whole entry)": "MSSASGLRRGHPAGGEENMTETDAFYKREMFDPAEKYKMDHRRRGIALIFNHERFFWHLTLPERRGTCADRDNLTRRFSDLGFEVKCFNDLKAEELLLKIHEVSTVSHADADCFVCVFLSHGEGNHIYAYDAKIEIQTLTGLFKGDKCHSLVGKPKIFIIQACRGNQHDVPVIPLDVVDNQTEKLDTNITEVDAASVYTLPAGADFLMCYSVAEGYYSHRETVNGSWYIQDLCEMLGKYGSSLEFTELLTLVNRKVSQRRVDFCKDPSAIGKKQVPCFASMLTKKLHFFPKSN", "assay": "human caspase-6 inhibitors, dose response, biochemical, VEID-R110 fluorescence, cherry-pick (AID 720632)"}, "[11]": {"target": "T4, Carboxy-terminal domain RNA polymerase II polypeptide A small phosphatase 1 (Homo sapiens, UniProt Q9GZU7)", "T4 sequence (Q9GZU7 whole entry)": "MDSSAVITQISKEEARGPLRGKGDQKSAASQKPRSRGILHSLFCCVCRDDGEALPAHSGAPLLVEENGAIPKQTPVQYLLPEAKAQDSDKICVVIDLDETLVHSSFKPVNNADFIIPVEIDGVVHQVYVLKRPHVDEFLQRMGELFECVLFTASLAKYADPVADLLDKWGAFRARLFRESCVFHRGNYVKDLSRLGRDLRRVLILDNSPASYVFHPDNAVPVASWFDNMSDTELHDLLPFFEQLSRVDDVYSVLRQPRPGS", "assay": "inhibitors of CTDSP1, concentration-response testing, biochemical assay, absorbance-based, actives from ultra-high-throughput screening (AID 540297)", "assay_type": "functional"}, "[12]": {"target": "T5, Beta-2 adrenergic receptor (Homo sapiens, UniProt P07550)", "T5 sequence (P07550 whole entry)": "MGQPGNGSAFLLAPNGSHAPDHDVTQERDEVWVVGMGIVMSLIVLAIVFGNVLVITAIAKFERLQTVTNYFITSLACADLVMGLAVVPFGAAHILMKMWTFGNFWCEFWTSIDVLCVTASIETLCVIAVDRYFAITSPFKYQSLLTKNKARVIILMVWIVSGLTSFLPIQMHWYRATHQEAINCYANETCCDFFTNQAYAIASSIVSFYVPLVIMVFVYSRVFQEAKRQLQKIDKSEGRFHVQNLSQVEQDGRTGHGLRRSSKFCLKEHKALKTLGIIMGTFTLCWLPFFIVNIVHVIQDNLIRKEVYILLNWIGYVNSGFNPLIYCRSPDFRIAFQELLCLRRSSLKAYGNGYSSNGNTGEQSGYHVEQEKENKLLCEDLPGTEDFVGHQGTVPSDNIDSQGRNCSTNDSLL", "assay": "beta2AR agonists driving receptor internalization, dose response, cell-based, FAP fluorogen, flow cytometry, cherry pick 1 (AID 588763)", "assay_type": "functional"}, "[13]": {"target": "T5, Beta-2 adrenergic receptor", "assay": "Dose response for HTS for Beta-2AR agonists via FAP method from Powderset1.", "assay_type": "functional"}, "[14]": {"target": "T1, Tyrosine-protein phosphatase non-receptor type 7", "assay": "inhibitors of human HePTP phosphatase, […], biochemical, absorbance, leukemia target (AID 521)", "assay_type": "functional"}, "NADPH oxidase 1": {"target": "NADPH oxidase 1 (Homo sapiens, UniProt Q9Y5S8)", "sequence (Q9Y5S8 whole entry)": "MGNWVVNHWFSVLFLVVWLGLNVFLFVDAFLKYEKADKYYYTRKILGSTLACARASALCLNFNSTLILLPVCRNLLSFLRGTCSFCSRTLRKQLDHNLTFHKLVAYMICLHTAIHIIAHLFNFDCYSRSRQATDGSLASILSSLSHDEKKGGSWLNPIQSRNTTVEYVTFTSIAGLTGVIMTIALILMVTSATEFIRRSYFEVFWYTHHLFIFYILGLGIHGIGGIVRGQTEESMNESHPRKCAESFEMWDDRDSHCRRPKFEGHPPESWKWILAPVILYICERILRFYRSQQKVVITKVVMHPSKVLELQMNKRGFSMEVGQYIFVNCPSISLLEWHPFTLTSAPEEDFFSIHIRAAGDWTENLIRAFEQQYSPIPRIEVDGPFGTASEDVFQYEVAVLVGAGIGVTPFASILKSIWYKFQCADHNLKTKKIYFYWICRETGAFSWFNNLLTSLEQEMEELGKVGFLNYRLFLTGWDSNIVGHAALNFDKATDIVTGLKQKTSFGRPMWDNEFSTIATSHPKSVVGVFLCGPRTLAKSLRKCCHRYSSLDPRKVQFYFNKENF", "assay": "Late-stage luminescence-based cell-based dose response assay to identify inhibitors of NADPH oxidase 1 (NOX1): Purchased analogs 2.", "assay_type": "functional"}, "[15]": {"assay": "PAX5 activity inhibitors, dose response, selectivity assay for PAX8 inhibitor project, cell-based, plate reader, dry powder samples (AID 743047);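 further: HEK293 cells carrying a Pax5 driven CD19 promoter luciferase reporter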", "assay_type": "functional"}, "Paired box protein Pax-8": {"target": "Paired box protein Pax-8 (Homo sapiens, UniProt Q06710)", "assay": "inhibitors of PAX8-driven TPO luciferase reporter, dose response, RMG-I cells, cherry-pick (AID 687027);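 further: luciferase reporter driven by Pax8 target thyroperoxidase promoter measured by SteadyGlo luminescence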", "assay_type": "functional, cell-based"}, "[16]": {"assay": "PAX2 cell-based inhibition, dose response, selectivity assay for PAX8 inhibitor project, plate reader, dry powder samples (AID 743048);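 further: HEK293 cells carrying a WT1 promoter luciferase reporter driven by expressed Pax2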", "assay_type": "functional"}, "[17]": {"assay": "cytotoxicity dependent on PAX8, dose response, cell-based, plate reader, dry powder (AID 743049)", "assay_type": "functional"}}, "note": "“And” between values parts separate entries of the source, which are not always exact repeats. Equal values may be shown once. The source made the active and inactive calls."}
{"smiles": "Cn1cc(-c2ccc(CN3C(=O)C(=O)c4ccccc43)c(F)c2)cn1", "values": [{"measurement": "EC50", "setting": "[1]", "value": "845 nM (active)"}]}
{"smiles": "O=C(CSc1n[nH]c(-c2ccccc2)n1)Nc1ccc(Br)cn1", "values": [{"measurement": "IC50", "setting": "[2]", "value": "> 100 µM (active)"}, {"measurement": "CC50", "setting": "[3]", "value": "> 40 µM (active)"}]}
{"smiles": "O=C(NCc1ccccc1)c1ccc2nc(-c3ccco3)c(-c3ccco3)nc2c1", "values": [{"measurement": "IC50", "setting": "[4]", "value": "3.99 µM (active)"}, {"measurement": "IC50", "setting": "[5]", "value": "4.26 µM (active)"}, {"measurement": "IC50", "setting": "Estrogen receptor beta", "value": "< 23 nM (not active)"}, {"measurement": "IC50", "setting": "Ephrin type-A receptor 4", "value": "11.1 µM (active)"}]}
{"smiles": "COc1ccc(-c2cc(C(F)(F)F)nc(S(=O)(=O)CCCC(=O)Nc3cccnc3Cl)n2)cc1OC", "values": [{"measurement": "EC50", "setting": "[6]", "value": "25 µM (not active)"}, {"measurement": "AC50", "setting": "[7]", "value": "11.6 µM (active)"}, {"measurement": "AC50", "setting": "[8]", "value": "3.17 µM (active)"}, {"measurement": "AC50", "setting": "[9]", "value": "13.8 µM (active)"}]}
{"smiles": "Cc1ccc(C)c(NC(=O)CN(C)C(=O)c2cccc(-n3cccc3)c2)c1", "values": [{"measurement": "AC50", "setting": "Caspase-7", "value": "> 70 µM (inactive)"}, {"measurement": "IC50", "setting": "Protein Tat", "value": "> 100 µM (active)"}, {"measurement": "IC50", "setting": "[10]", "value": "10.9 µM (not active)"}, {"measurement": "IC50", "setting": "Bcl-2-like protein 1", "value": "> 109 µM (not active)"}, {"measurement": "AC50", "setting": "Caspase-8", "value": "> 70 µM (inactive)"}, {"measurement": "AC50", "setting": "Caspase-6", "value": "4.58 µM (active)"}, {"measurement": "IC50", "setting": "[11]", "value": "6.04 µM (active)"}]}
{"smiles": "Cc1ccc(OCC(=O)Nc2ccc(-c3nc4ncccc4o3)cc2)cc1", "values": [{"measurement": "EC50", "setting": "[12]", "value": "31.6 nM (active) and 61.1 nM (active)"}, {"measurement": "EC50", "setting": "[13]", "value": "15.5 nM (active)"}, {"measurement": "IC50", "setting": "[14]", "value": "> 100 µM (not active)"}]}
{"smiles": "CN(CCO)c1ccc(/C=N/Nc2c(F)c(F)nc(F)c2F)cc1", "values": [{"measurement": "IC50", "setting": "NADPH oxidase 1", "value": "1.11 µM (active)"}]}
{"smiles": "C[C@H](CO)N1C[C@H](C)[C@@H](CN(C)S(=O)(=O)c2ccc(-c3ccccc3)cc2)OCc2cn(nn2)CCCC1=O", "values": [{"measurement": "AC50", "setting": "[15]", "value": "> 70 µM (inactive)"}, {"measurement": "AC50", "setting": "Paired box protein Pax-8", "value": "3.99 µM (active)"}, {"measurement": "AC50", "setting": "[16]", "value": "> 70 µM (inactive)"}, {"measurement": "AC50", "setting": "[17]", "value": "> 70 µM (inactive)"}]}
